{
  "source": "patent US6894072B2",
  "about": "“Compounds as NS3-serine protease inhibitors of hepatitis C virus” (Schering Corporation, priority 2002, dated 2005)",
  "data": [
    {"target": "T1, HCV serine protease (Hepatitis C virus genotype 1a, UniProt P27958)", "T1 construct": "Spectrophotometric assay for the HCV serine protease", "T1 sequence (P27958 1027-1657)": "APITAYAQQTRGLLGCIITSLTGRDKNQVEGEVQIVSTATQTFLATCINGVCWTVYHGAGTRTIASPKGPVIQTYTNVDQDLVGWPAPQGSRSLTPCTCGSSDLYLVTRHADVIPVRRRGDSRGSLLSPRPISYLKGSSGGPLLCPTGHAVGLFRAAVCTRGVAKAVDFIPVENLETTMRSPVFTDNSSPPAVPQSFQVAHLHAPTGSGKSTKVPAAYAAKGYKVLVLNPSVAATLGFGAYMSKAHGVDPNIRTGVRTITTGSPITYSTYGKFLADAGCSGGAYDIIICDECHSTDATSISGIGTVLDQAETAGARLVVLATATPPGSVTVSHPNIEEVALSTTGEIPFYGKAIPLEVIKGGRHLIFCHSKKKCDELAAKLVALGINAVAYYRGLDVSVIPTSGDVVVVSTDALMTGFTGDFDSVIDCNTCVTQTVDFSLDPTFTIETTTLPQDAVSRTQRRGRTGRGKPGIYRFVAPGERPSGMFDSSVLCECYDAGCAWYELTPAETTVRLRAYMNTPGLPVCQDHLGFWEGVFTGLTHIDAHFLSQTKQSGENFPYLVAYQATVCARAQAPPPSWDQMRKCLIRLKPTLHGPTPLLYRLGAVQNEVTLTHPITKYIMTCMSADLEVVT", "T1 sequence (P27958 1658-1711)": "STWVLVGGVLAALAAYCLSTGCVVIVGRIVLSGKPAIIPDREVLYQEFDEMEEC", "test": "Spectrophotometric assay for HCV protease inhibitory activity", "format": "biochemical", "conditions": "procedure of WO 02/08244", "description": "Assay for HCV Protease Inhibitory Activity: Spectrophotometric Assay: Spectrophotometric assay for the HCV serine protease was performed on the inventive compounds by following the procedure described in PCT Publication No. WO 02/08244 published Jan. 31, 2002. The activity of the compounds in Table 1 is shown in the same Table.", "values": [
      {"compound": "CC(C)(C)OC(=O)N[C@H](C(=O)N1CC2C([C@H]1C(=O)NC(CC1CCC1)C(=O)C(=O)N1CC[C@H]1C(=O)OCc1ccccc1)C2(C)C)C1CCCCC1", "note": "(stereo partly shown) [Entry 4]", "Activity (binding activity)": "A (Binding activity A: <5 μM)"},
      {"compound": "CC(C)(C)OC(=O)N[C@H](C(=O)N1CC2C([C@H]1C(=O)NC(CC1CCC1)C(=O)C(=O)N1CCC1)C2(C)C)C1CCCCC1", "note": "(stereo partly shown) [Entry 1]", "Activity (binding activity)": "A (Binding activity A: <5 μM)"},
      {"compound": "COC(=O)[C@@H]1CCN1C(=O)C(=O)C(CC1CCC1)NC(=O)[C@@H]1C2C(CN1C(=O)[C@@H](NC(=O)OC(C)(C)C)C1CCCCC1)C2(C)C", "note": "(stereo partly shown) [Entry 2]", "Activity (binding activity)": "A (Binding activity A: <5 μM)"},
      {"compound": "CC(C)(C)OC(=O)N[C@H](C(=O)N1CC2C([C@H]1C(=O)NC(CC1CCC1)C(=O)C(=O)N1CC[C@H]1C(=O)O)C2(C)C)C1CCCCC1", "note": "(stereo partly shown) [Entry 3]", "Activity (binding activity)": "A (Binding activity A: <5 μM)"}
    ]}
  ]
}
